Measured values from the supplement of paper PMC10307832.

What was measured:
Assay in all cases: relative viability (nuclei count vs DMSO), 5 days (fraction); higher = more cells survive
[1] = compound: CCN1CCC(CC1)N2C=C(N=N2)CNC3=CC4=C(C(=CN=C4C(=C3)Cl)C#N)NC5=CC(=C(C=C5)F)Cl [KIN001-266] + Cc1cc(Nc2cc(N3CCN(C)CC3)nc(Sc3ccc(NC(=O)C4CC4)cc3)n2)n[nH]1 [Tozasertib] (partner 0.1 µM)
Procedure, shortened: (§1)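 Cells from lung cancer lines were seeded into 1536-well plates and, one day later, dosed by pin tool. Treatments were either a single drug or a fixed dose of an anchor drug with five library-drug doses (not always all listed) in √10 steps. After 5 days, nuclei were stained in a one-step fixation (final 0.05% Triton X-100, 1% formaldehyde, 1 ug/ml Hoechst) and counted on 4× images, and relative viability is the treated-to-vehicle nuclei ratio, as the median of duplicate plates.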

[2] = compound: CCN1CCC(CC1)N2C=C(N=N2)CNC3=CC4=C(C(=CN=C4C(=C3)Cl)C#N)NC5=CC(=C(C=C5)F)Cl [KIN001-266] + Cc1nc(NC(=O)N2CCC[C@H]2C(N)=O)sc1-c1ccnc(C(C)(C)C(F)(F)F)c1 [Alpelisib] (partner 2 µM)
Procedure, shortened: as §1

[3] = compound: CCN1CCC(CC1)N2C=C(N=N2)CNC3=CC4=C(C(=CN=C4C(=C3)Cl)C#N)NC5=CC(=C(C=C5)F)Cl [KIN001-266] + Cc1nc(Nc2ncc(C(=O)Nc3c(C)cccc3Cl)s2)cc(N2CCN(CCO)CC2)n1 [Dasatinib] (partner 0.075 µM)
Procedure, shortened: as §1

[4] = compound: CCN1CCC(CC1)N2C=C(N=N2)CNC3=CC4=C(C(=CN=C4C(=C3)Cl)C#N)NC5=CC(=C(C=C5)F)Cl [KIN001-266] + CCNC(=O)c1noc(-c2cc(C(C)C)c(O)cc2O)c1-c1ccc(CN2CCOCC2)cc1 [Luminespib] (partner 0.01 µM)
Procedure, shortened: as §1

Row | Cell Line | relative viability ([1]; first compound 0.08 µM) | relative viability ([1]; first compound 0.253 µM) | relative viability ([1]; first compound 0.8 µM) | relative viability ([1]; first compound 2.53 µM) | relative viability ([1]; first compound 8 µM) | relative viability ([2]; first compound 0.08 µM) | relative viability ([2]; first compound 0.253 µM) | relative viability ([2]; first compound 0.8 µM) | relative viability ([2]; first compound 2.53 µM) | relative viability ([2]; first compound 8 µM) | relative viability ([3]; first compound 0.08 µM) | relative viability ([3]; first compound 0.253 µM) | relative viability ([3]; first compound 0.8 µM) | relative viability ([3]; first compound 2.53 µM) | relative viability ([3]; first compound 8 µM) | relative viability ([4]; first compound 0.08 µM) | relative viability ([4]; first compound 0.253 µM) | relative viability ([4]; first compound 0.8 µM) | relative viability ([4]; first compound 2.53 µM) | relative viability ([4]; first compound 8 µM)
1 | HCC-366 | 0.156 | 0.286 | 0.0999 | 0.127 | 0.111 | 0.495 | 0.492 | 0.583 | 0.374 | 0.364 | 0.783 | 0.591 | 0.627 | 0.656 | 0.656 |  |  |  |  | 
2 | HCC-827 | 0.442 | 0.432 | 0.41 | 0.359 | 0.389 | 0.953 | 1.04 |  | 0.948 | 0.648 | 0.349 | 0.317 |  | 0.275 | 0.229 | 0.659 | 0.38 | 0.509 | 0.841 | 0.362
3 | HOP-62 | 0.414 | 0.381 | 0.384 | 0.328 | 0.319 | 1.09 | 1.21 | 0.967 | 1.02 | 0.84 | 0.662 | 0.686 | 0.601 | 0.675 | 0.55 | 0.906 | 0.923 | 0.876 | 0.944 | 0.787
4 | IA-LM |  |  |  |  |  | 1.09 | 0.652 | 0.754 | 0.635 | 0.755 |  |  |  |  |  |  |  |  |  | 
5 | LC-2-ad | 0.451 | 0.409 | 0.516 | 0.444 | 0.447 | 0.897 | 0.776 | 0.918 | 0.783 | 0.869 | 0.661 | 0.533 | 0.626 | 0.8 | 0.632 | 0.943 | 1.19 | 1.13 | 1.06 | 0.931
6 | LCLC-97TM1 | 0.196 | 0.209 | 0.186 | 0.171 | 0.223 | 0.268 | 0.217 | 0.236 | 0.222 | 0.236 | 0.905 | 0.812 | 0.825 | 0.746 | 0.848 | 0.953 | 0.77 | 0.643 | 0.603 | 0.24
7 | LCLC-103H | 0.492 | 0.494 | 0.413 | 0.52 | 0.504 | 0.906 | 0.975 | 0.951 | 0.972 | 0.808 | 0.538 | 0.494 | 0.436 | 0.519 | 0.452 | 0.96 | 1.01 | 0.95 | 0.923 | 0.695
8 | LK-2 | 0.182 | 0.18 | 0.174 | 0.185 | 0.154 | 1.3 |  | 1.17 |  | 1.11 | 0.361 | 0.256 | 0.237 | 0.269 | 0.22 | 0.204 | 0.16 | 0.191 | 0.187 | 0.168
9 | LOU-NH91 | 0.675 | 0.689 | 0.492 | 0.609 | 0.501 | 0.735 | 0.724 | 0.501 | 0.676 | 0.588 | 0.553 | 0.531 | 0.39 | 0.516 | 0.435 | 0.35 | 0.312 | 0.286 | 0.337 | 0.391
10 | LU99A | 0.282 | 0.29 | 0.259 | 0.21 | 0.191 | 0.66 | 0.606 | 0.442 | 0.438 | 0.442 | 0.726 | 0.514 | 0.505 | 0.428 | 0.425 | 0.265 | 0.216 | 0.217 | 0.243 | 0.228
11 | LXF-289 | 0.186 | 0.236 | 0.172 | 0.201 | 0.189 | 1.05 | 1.03 | 1.01 | 1.05 | 1.03 | 0.24 | 0.193 | 0.232 | 0.261 | 0.203 | 0.633 | 0.72 | 0.72 | 0.705 | 0.794
12 | NCI-H23 | 0.359 | 0.381 | 0.376 | 0.41 | 0.271 | 0.768 | 0.646 | 0.733 | 0.663 | 0.695 | 0.867 | 0.86 | 0.917 | 0.683 | 0.85 | 0.201 | 0.185 | 0.182 | 0.239 | 0.226
13 | NCI-H522 | 0.562 | 0.498 | 0.566 | 0.502 | 0.594 |  |  |  |  |  | 0.919 | 0.918 | 0.853 | 0.862 | 0.934 | 1.09 | 1.19 | 0.99 | 0.912 | 1.05
14 | NCI-H1563 |  |  |  |  |  | 0.996 | 0.904 | 0.92 | 0.906 | 0.897 | 0.468 | 0.524 | 0.447 | 0.458 | 0.553 | 0.496 | 0.498 | 0.534 | 0.602 | 0.524
15 | NCI-H1648 | 0.711 | 0.513 | 0.436 | 0.558 | 0.485 |  |  |  |  |  |  |  |  |  |  |  |  |  |  | 
16 | NCI-H1650 | 0.564 | 0.406 | 0.372 | 0.263 | 0.162 |  |  |  |  |  | 0.313 | 0.356 | 0.238 | 0.288 | 0.224 | 0.193 | 0.207 | 0.196 | 0.177 | 0.203
17 | NCI-H1703 |  |  |  |  |  | 0.419 | 0.307 | 0.31 | 0.289 | 0.325 |  |  |  |  |  |  |  |  |  | 
18 | NCI-H1792 |  |  |  |  |  | 0.715 | 0.752 | 0.695 | 0.8 | 0.669 | 0.771 | 0.787 | 0.753 | 0.762 | 0.906 | 0.414 | 0.381 | 0.403 | 0.628 | 0.486
19 | NCI-H2342 | 0.524 | 0.506 | 0.584 | 0.627 | 0.414 |  |  |  |  |  | 0.298 | 0.303 | 0.258 | 0.264 | 0.31 | 0.745 | 0.716 | 0.689 | 0.721 | 0.865
20 | SW 900 | 0.741 | 0.584 | 0.567 | 0.482 | 0.491 |  |  |  |  |  | 0.753 | 0.491 | 0.544 | 0.764 | 0.507 | 0.143 | 0.177 | 0.154 | 0.173 | 0.167
